Measured values from patent publication US7402606B2, “Derivatives of 1-(oxoaminoacetyl) pentylcarbamate as cathepsin K inhibitors for the treatment of bone loss” (SmithKline Beecham Corporation, priority 2002, dated 2008).

Target: T1, human cathepsin K (Homo sapiens, UniProt P43235)
T1 construct: The proform of cathepsin K was converted to mature cathepsin K by brief exposure to pH 4; made in house; host or cells: baculovirus; Trichoplusia ni High Five cells (virus raised in Sf-9)
T1 sequence (P43235 115-329): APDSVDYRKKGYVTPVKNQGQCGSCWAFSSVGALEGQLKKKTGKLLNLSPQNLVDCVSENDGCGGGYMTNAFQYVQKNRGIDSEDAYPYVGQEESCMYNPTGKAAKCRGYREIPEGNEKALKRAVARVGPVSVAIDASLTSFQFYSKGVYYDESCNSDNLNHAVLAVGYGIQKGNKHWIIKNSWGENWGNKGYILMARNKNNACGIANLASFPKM
Assay: Cathepsin K inhibition assay, human recombinant enzyme, fluorogenic substrate Cbz-Phe-Arg-AMC
Format: biochemical
Conditions: Table 1, human cathepsin K; read-out: h Cat K IC50
Protocol: All assays for cathepsin K were carried out with human and rat recombinant enzyme. Assays for cathepsins S ? V were also carried out with human recombinant enzyme. Assays for human cathepsins B, H, and L were carried out with enzyme, purchased from Athens Research and Technology, Inc., prepared from human liver tissue. […] A stock substrate solution of Cbz-Phe-Arg-AMC was prepared at a concentration of 50 mM in dimethyl sulfoxide. This substrate was diluted into the assay for a final substrate concentration of 10 μM in the rat cathepsin K, human cathepsin K, and human cathepsin B assays; a final substrate concentration of 5 μM in the human cathepsin L assay; and a final substrate concentration of 2 μM in the human cathepsin V assay.
All assays contained 10% dimethyl sulfoxide. […] All assays were conducted at 30° C. Product fluorescence (excitation at 360 nm; emission at 440 nm, (except cathepsin H which used excitation at 340 nm; emission at 420 nm)) was monitored with a PerSeptive Biosystems Cytofluor II fluorescence plate reader. Product progress curves were generated over 2.3 h monitoring the formation of 7-amino-4-methylcoumarin product (or β-naphthalamide for cathepsin H).
Human and rat Cathepsin K:
Two liters of Spodoptera frugiperda (Sf-9) cells (ATCC) were grown in Grace's Supplemented medium (Life Technologies) supplemented with 2 g/L glucose, 10% fetal bovine serum (HyClone) and 0.1% pluronic F-68 (Life Technologies). […] The cells continued to grow for 72 h post-infection, before the virus was harvested by centrifugation at 1400×g for 30 min.
One and one-half liters of Trichoplusia ni (T. ni) High Five (™) cells [JRH Biosciences, Woodland, Calif. […] The cells were grown for 24 h at 28° C., 50 RPM, and 50% dissolved oxygen. […] Media were separated from cells at a rate of 1 L/min using the Centritech 100 ™ continuous-flow centrifuge (DuPont) operating at 200×g.
Protein Purification: Media (human and rat) were filtered through a Whatman 3 filter, and then loaded onto a 25 mL. Poros HS II (26 mm×47 mm) cation exchange column equilibrated in 25 mM sodium acetate at pH 5.5 (equilibration buffer). The column was washed until the absorbance reached the baseline value, and then the protein was eluted with a linear gradient from 0-2 M sodium chloride in the equilibration buffer. Column fractions were analyzed by SDS-PAGE, N-terminal sequencing, and mass spectrometry. Fractions containing the proform of cathepsin K were pooled and frozen at −80° C. The proform was concentrated in an Amicon Centriprep 10 and fractionated with a Superdex 75 column (26 mm×600 mm, Pharmacia) equilibrated in 400 mM sodium chloride, 25 mM sodium acetate at pH 5.5.
Cathepsin K Activation: The proform of cathepsin K was converted to mature cathepsin K by brief exposure to pH 4 in the presence of 5 mM L-cysteine. Typically, 5 mM L-cysteine was added to 10 mL of approximately 1 mg/mL procathepsin K. One mL of this solution was diluted ten-fold into 450 mM sodium acetate at pH 4.0 containing 5 mM L-cysteine. This solution was reacted at 23° C. for 2 min before neutralization with 2 mL, 1.8 M sodium acetate at pH 6.0. The neutralized sample was added to the remaining 9 mL of procathepsin K. The mixture was incubated at 4° C. for 2-3 days. The activated cathepsin K was chromatographed on a Poros HS II column as described above.
Potential inhibitors were evaluated using the progress curve method. Assays were carried out in the presence of variable concentrations of test compound. Reactions were initiated by addition of buffered solutions of inhibitor and substrate to enzyme. Data analysis was conducted according to one of two procedures depending on the appearance of the progress curves in the presence of inhibitors. […] Ki values were calculated from IC50 values using equation 2 assuming a competitive model.

| IC50 [nM] | Structure (SMILES) |
| --- | --- |
| 10 to 100 | CCCC[C@H](NC(=O)O[C@@H]1CN(C(=O)CCCc2ccccc2)CC1(C)C)C(=O)C(=O)N[C@H](C)c1ccccc1 [Example 24, (3S)-4,4-Dimethyl-1-(4-phenylbutanoyl)pyrrolidinyl (1S)-1-(oxo {[(1R)-1-phenylethyl]amino}acetyl)pentylcarbamate] |
| 1 to 10 | CCCC[C@H](NC(=O)O[C@@H]1CN(C(=O)c2n[nH]c3ccccc23)CC1(C)C)C(=O)C(=O)N[C@H](C)c1ccccc1 [Example 36, (3S)-1-(1H-Indazol-3-ylcarbonyl)-4,4-dimethylpyrrolidinyl (1S)-1-(oxo {[(1R)-1-phenylethyl]amino}acetyl)pentylcarbamate] |
| 10 to 100 | CCCC[C@H](NC(=O)O[C@@H]1CN(C(=O)Nc2c(C)noc2C)CC1(C)C)C(=O)C(=O)N[C@H](C)c1ccccc1 [Example 67, (3S)-1-{[(3,5-Dimethyl-4-isoxazolyl)amino]carbonyl}-4,4-dimethylpyrrolidinyl (1S)-1-(oxo{[(1R)-1-phenylethyl]amino}acetyl)pentylcarbamate] |
| 100 to 1000 | CCCC[C@H](NC(=O)O[C@@H]1CN(C(=O)OCC2CCCCO2)CC1(C)C)C(=O)C(=O)N[C@H](C)c1ccccc1 (stereo partly drawn) [Example 48, Tetrahydro-2H-pyran-2-ylmethyl (4S)-3,3-dimethyl-4-[({[(1S)-1-(oxo{[(1R)-1-phenylethyl]amino}acetyl)pentyl]amino}carbonyl)oxy]-1-pyrrolidinecarboxylate] |
| 10 to 100 | CCCC[C@H](NC(=O)O[C@@H]1CN(C(=O)O[C@@H]2CCOC2)CC1(C)C)C(=O)C(=O)N[C@H](C)c1ccccc1 [Example 56, (3R)-Tetrahydro-3-furanyl (4S)-3,3-dimethyl-4-[({[(1S)-1-(oxo{[(1R)-1-phenylethyl]amino}acetyl)pentyl]amino}carbonyl)oxy]-1-pyrrolidinecarboxylate] |
| 10 to 100 | CCCC[C@H](NC(=O)O[C@@H]1CN(C(=O)c2csc(-c3snnc3C)n2)CC1(C)C)C(=O)C(=O)N[C@H](C)c1ccccc1 [Example 37, (3S)-4,4-Dimethyl-1-{[2-(4-methyl-1,2,3-thiadiazol-5-yl)-1,3-thiazol-4-yl]carbonyl}pyrrolidinyl (1S)-1-(oxo{[(1R)-1-phenylethyl]amino}acetyl)pentylcarbamate] |
| 10 to 100 | CCCC[C@H](NC(=O)O[C@@H]1CN(C(=O)OCc2cc(C)on2)CC1(C)C)C(=O)C(=O)N[C@H](C)c1ccccc1 [Example 52, (5-methyl-3-isoxazolyl)methyl (4S)-3,3-dimethyl-4-[({[(1S)-1-(oxo{[(1R)-1-phenylethyl]amino}acetyl)pentyl]amino}carbonyl)oxy]-1-pyrrolidinecarboxylate] |
| 10 to 100 | CCCC[C@H](NC(=O)O[C@@H]1CN(C(=O)N2CCOCC2)CC1(C)C)C(=O)C(=O)N[C@H](C)c1ccccc1 [Example 73, (3S)-4,4-Dimethyl-1-(4-morpholinylcarbonyl)pyrrolidinyl (1S)-1-(oxo{[(1R)-1-phenylethyl]amino}acetyl)pentylcarbamate] |
| 1 to 10 | CCCC[C@H](NC(=O)O[C@@H]1CN(C(=O)Nc2cc(F)ccc2C)CC1(C)C)C(=O)C(=O)N[C@H](C)c1ccccc1 [Example 72, (3S)-1-[(5-Fluoro-2-methylanilino)carbonyl]-4,4-dimethylpyrrolidinyl (1S)-1-(oxo{[(1R)-1-phenylethyl]amino}acetyl)pentylcarbamate] |

Further lines, the molecule ahead of its results:

| Structure (SMILES) | IC50 [nM] |
| --- | --- |
| CCCC[C@H](NC(=O)O[C@@H]1CN(C(=O)Cc2ccc(C(C)(C)C)cc2)CC1(C)C)C(=O)C(=O)N[C@H](C)c1ccccc1 [Example 25, (3S)-1-[(4-tert-Butylphenyl)acetyl]-4,4-dimethylpyrrolidinyl (1S)-1-(oxo{[(1R)-1-phenylethyl]amino}acetyl)pentylcarbamate] | 10 to 100 |
| CCCC[C@H](NC(=O)O[C@@H]1CN(C(=O)c2nn(-c3ccccc3)nc2C)CC1(C)C)C(=O)C(=O)N[C@H](C)c1ccccc1 [Example 15, (3S)-4,4-Dimethyl-1-[(5-methyl-2-phenyl-2H-1,2,3-triazol-4-yl)carbonyl]pyrrolidinyl (1S)-1-(oxo{[(1R)-1-phenylethyl]amino}acetyl)pentylcarbamate] | 1 to 10 |
| CCCC[C@H](NC(=O)O[C@@H]1CN(C(=O)Oc2cccc(Oc3ccccc3)c2)CC1(C)C)C(=O)C(=O)N[C@H](C)c1ccccc1 [Example 59, 3-Phenoxyphenyl (4S)-3,3-dimethyl-4-[({[(1S)-1-(oxo{[(1R)-1-phenylethyl]amino}acetyl)pentyl]amino}carbonyl)oxy]-1-pyrrolidinecarboxylate] | 10 to 100 |
| CNC(=O)NCCCC[C@H](NC(=O)O[C@@H]1C(=O)OCC1(C)C)C(=O)C(=O)N[C@H](C)c1ccccc1 [Example 2, (3S)-4,4-dimethyl-2-oxotetrahydro-3-furanyl (1S)-5-{[(methylamino)carbonyl]amino}-1-(oxo{[(1R)-1-phenylethyl]amino}acetyl)pentylcarbamate] | 1 to 10 |
| CCCC[C@H](NC(=O)O[C@@H]1CN(C(=O)Oc2ccc(-c3ccccc3)cc2)CC1(C)C)C(=O)C(=O)N[C@H](C)c1ccccc1 [Example 57, [1,1′-Biphenyl]-4-yl (4S)-3,3-dimethyl-4-[({[(1S)-1-(oxo{[(1R)-1-phenylethyl]amino}acetyl)pentyl]amino}carbonyl)oxy]-1-pyrrolidinecarboxylate] | 1 to 10 |
| CCCC[C@H](NC(=O)OC1CN(C(=O)Oc2ccccc2)CC1(C)C)C(=O)C(=O)N[C@H](C)c1ccccc1 (stereo partly drawn) [Example 62, Phenyl 3,3-dimethyl-4-[({[(1S)-1-(oxo{[(1R)-1-phenylethyl]amino}acetyl)pentyl]amino}carbonyl)oxy]-1-pyrrolidinecarboxylate] | 10 to 100 |
| CCCC[C@H](NC(=O)O[C@@H]1CN(C(=O)c2snnc2C)CC1(C)C)C(=O)C(=O)N[C@H](C)c1ccccc1 [Example 13, (3S)-4,4-Dimethyl-1-[(4-methyl-1,2,3-thiadiazol-5-yl)carbonyl]pyrrolidinyl (1S)-1-(oxo {[(1R)-1-phenylethyl]amino}acetyl)pentylcarbamate] | 10 to 100 |
| CCCC[C@H](NC(=O)O[C@@H]1CN(C(C)=O)CC1(C)C)C(=O)C(=O)N[C@H](C)c1ccccc1 [Example 10, (3S)-1-Acetyl-4,4-dimethylpyrrolidinyl (1S)-1-(oxo{[(1R)-1-phenylethyl]amino}acetyl)pentylcarbamate] | 10 to 100 |
| CCCC[C@H](NC(=O)O[C@@H]1CN(C(=O)Cc2cccc(Oc3ccccc3)c2)CC1(C)C)C(=O)C(=O)N[C@H](C)c1ccccc1 [Example 23, (3S)-4,4-Dimethyl-1-[(3-phenoxyphenyl)acetyl]pyrrolidinyl (1S)-1-(oxo{[(1R)-1-phenylethyl]amino}acetyl)pentylcarbamate] | 10 to 100 |
| CCCC[C@H](NC(=O)O[C@@H]1CN(C(=O)OCC2CCOC2)CC1(C)C)C(=O)C(=O)N[C@H](C)c1ccccc1 (stereo partly drawn) [Example 49, Tetrahydro-3-furanylmethyl (4S)-3,3-dimethyl-4-[({[(1S)-1-(oxo {[(1R)-1-phenylethyl]amino}acetyl)pentyl]amino}carbonyl)oxy]-1-pyrrolidinecarboxylate] | 10 to 100 |
| CCCC[C@H](NC(=O)O[C@@H]1CN(C(=O)Cc2ccccc2Oc2ccccc2)CC1(C)C)C(=O)C(=O)N[C@H](C)c1ccccc1 [Example 31, (3S)-4,4-Dimethyl-1-[(2-phenoxyphenyl)acetyl]pyrrolidinyl (1S)-1-(oxo{[(1R)-1-phenylethyl]amino}acetyl)pentylcarbamate] | 10 to 100 |
